According to PubChem BioAssay (NCI):
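Five concentrations, 48 hours, 96-well plates. The concentration for full growth arrest is given as TGI.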

Experiments:
Assay in all cases: inhibition of tumour cell growth, NCI panel, 48 h
NCI-H226 lung = system: NCI-H226 lung
U251 CNS = system: U251 CNS
COLO 205 colon = system: COLO 205 colon
MALME-3M melanoma = system: MALME-3M melanoma
RPMI-8226 leukemia = system: RPMI-8226 leukemia
HT29 colon = system: HT29 colon
A498 renal = system: A498 renal
SK-MEL-5 melanoma = system: SK-MEL-5 melanoma
SK-MEL-28 melanoma = system: SK-MEL-28 melanoma
LOX IMVI melanoma = system: LOX IMVI melanoma
SF-268 CNS = system: SF-268 CNS
UACC-62 melanoma = system: UACC-62 melanoma
NCI-H23 lung = system: NCI-H23 lung
SF-295 CNS = system: SF-295 CNS
MOLT-4 leukemia = system: MOLT-4 leukemia
CAKI-1 renal = system: CAKI-1 renal
SNB-19 CNS = system: SNB-19 CNS
DMS 114 small cell lung = system: DMS 114 small cell lung
M14 melanoma = system: M14 melanoma
NCI/ADR-RES ovarian = system: NCI/ADR-RES ovarian

Row | Compound | TGI (NCI-H226 lung) [µM] | TGI (U251 CNS) [µM] | TGI (COLO 205 colon) [µM] | TGI (MALME-3M melanoma) [µM] | TGI (RPMI-8226 leukemia) [µM] | TGI (HT29 colon) [µM] | TGI (A498 renal) [µM] | TGI (SK-MEL-5 melanoma) [µM] | TGI (SK-MEL-28 melanoma) [µM] | TGI (LOX IMVI melanoma) [µM] | TGI (SF-268 CNS) [µM] | TGI (UACC-62 melanoma) [µM] | TGI (NCI-H23 lung) [µM] | TGI (SF-295 CNS) [µM] | TGI (MOLT-4 leukemia) [µM] | TGI (CAKI-1 renal) [µM] | TGI (SNB-19 CNS) [µM] | TGI (DMS 114 small cell lung) [µM] | TGI (M14 melanoma) [µM] | TGI (NCI/ADR-RES ovarian) [µM]
1 | O=C1OC(c2ccc(Cl)cc2)(c2ccc(Cl)cc2)c2c1ccc1ccccc21 | > 100 | > 100 | > 100 | > 100 | > 100 | > 100 | > 100 | > 100 | > 100 | > 100 | > 100 | > 100 | > 100 | > 100 | > 100 | > 100 | > 100 | – | – | –
2 | COc1ccc(/C=N/n2cnc3c(c2=O)S/C(=C2/SC(=S)N(c4ccc(C)cc4)C2=O)N3c2ccccc2)cc1 | > 100 | – | > 100 | 60.3 | > 100 | > 100 | – | – | > 100 | > 100 | 99.5 | 51.9 | – | 38.1 | > 10 | > 10 | 83.5 | > 100 | > 100 | –
3 | COc1ccc(/C(Cl)=C(\C=O)c2ccccc2)cc1OC | 82.2 | > 100 | 22.4 | > 100 | – | > 100 | – | > 100 | – | > 100 | > 100 | > 100 | > 100 | 55.1 | > 100 | > 100 | > 100 | > 100 | > 100 | –
4 | CCOC(=O)C1=NN(c2ccc(Cl)cc2)C2=CC(C)=NN(C)C(=S)N21 | – | 59.2 | > 100 | – | > 100 | > 100 | – | > 100 | > 100 | > 100 | > 100 | > 100 | > 100 | > 100 | > 100 | 50.4 | > 100 | – | > 100 | > 100
5 | N/C(=N\N=C\c1cc2c(cc1Cl)OCO2)NO | > 93.7 | > 100 | > 100 | > 100 | > 72.8 | > 100 | > 100 | 58.9 | > 100 | > 100 | > 100 | > 84.1 | > 100 | 74.8 | > 100 | > 100 | > 45.4 | > 100 | – | 57.2
6 | C=CC[N+](CCO)(CCO)CCCCCCCCCCCCCCCCCC | 28.7 | 4.48 | 11 | 31.1 | 5.45 | 12 | 42.5 | 25.6 | 28 | 12.6 | 13.3 | 20.2 | 44.9 | 21.5 | 3.85 | 17.9 | 35.3 | 18.4 | – | 55.8
